Experimental data from patent US9464326B2, “Total and phosphorylated IL-1 receptor-associated kinase-1 and IL-1 receptor-associated kinase-4 as a biomarker for cancer progression and chemotherapy resistance” (University of Maryland, Baltimore, priority 2012, dated 2016).

Key:
CCRF-CEM cells [1] = test: Western blot of signaling proteins in CCRF-CEM; type: cell-based, human; conditions: 5 uM, 48 hours, FIG. 3D
From the text: (FIG. 3C). […] (FIG. 3D). […] (FIG. 3D).

patient T-ALL cells = test: Western blot of patient T-ALL samples from treated NSG mice; type: in vivo
Experimental: CCRF-CEM (2×10^6) cells were injected intravenously (i.v.) into female NOD.Cg-Prkdc^scid Il2rg^tm1WJl/SzJ IL2RG (NSG) mice (Jackson Laboratories, Bar Harbor, Me.). […] In some experiments mice were injected i.v. with TLR1-TLR2 ligand (2.5 μg) two days after injecting cells. In other experiments mice were injected intraperitoneally (i.p.) with IRAK-1,-4 inhibitor (10 mg/kg) 3, 6, and 9 days (CCRF-CEM cells) or 7, 10, and 13 days (patient T-ALL cells) after detecting CD7^+ T-ALL cells in circulation. The numbers of T-ALL cells in the bone marrow, spleen, liver, and in circulation were determined by staining cells with anti-human CD7 and/or CD5. To compare T-ALL numbers between groups, 10 μl of calibration microbeads (BD Pharmingen) were added to 50 μl of blood (or marrow or spleen suspensions) and the flow cytometry instrument gates were set to count a constant number of beads.
The levels of p-mTOR and p-p65 were also examined in patient T-ALL samples obtained from mice treated with IRAK-1,-4 inhibitor or DMSO.

CCRF-CEM cells [2] = test: Senescence gene qPCR array / RT-PCR; type: cell-based, human; conditions: array of 84 senescence genes, COL1A1 not validated by RT-PCR
From the text: To further study the role of IRAK-1,-4 signaling in cellular senescence, we compared the expression of 84 key genes involved in the initiation and progression of senescence. […] Expression levels of CDKN1C, EGR1 and ID1 were also altered in all four T-ALL patient samples collected from IRAK-1,-4 inhibitor-treated NSG mice (FIG. 15E).

A375 melanoma cells = test: A375 melanoma xenograft model; conditions: IRAK-1,-4 inhibitor 35 mg/kg intratumorally, vinblastine 0.25 mg/kg i.p.; control 17 days
Experimental: (A-B) NSG mice (n=5) were injected subcutaneously with A375 melanoma cells. When tumors reached a size of approximately 50 mm^2 mice remained untreated or injected intraperitoneally with vinblastine mg/kg; administered every 2 days for 10 days), or peritumorally with IRAK-1,-4 inhibitor (35 mg/kg), or vinblastine plus IRAK.-1,-4 inhibitor. Tumor sizes were calculated by measuring perpendicular by longitudinal diameter;*, P<0.05. Mouse survival data were analyzed using the exact log-rank test;*, P<0.05, **P<0.001.
NOD.Cg-Prkdc^scid Il2rg^tmWJZ; SzJ IL2RG (NSG) mice (Jackson Laboratories, Bar Harbor, Me.) were subcutaneously (s.c.) injected with 2.5×10^6 A375 melanoma cells delivered in PBS. […] When tumors reached a size of approximately 50 mm^2 mice were injected intratumorally (i.t.) with 35 mg/kg of IRAK-1,-4 inhibitor or an equal volume of vehicle (DMSO). Mice were intraperitoneally (i.p.) injected with vinblastine (0.25 mg/kg) every 2 days for 5 days starting on the same day that mice received with IRAK-1,-4 inhibitor. Tumor sizes were analyzed using a mixed model approach for repeated measurements and mouse survival data were analyzed with the exact log-rank test.

CEM-C2 = test: Proliferation (3H-thymidine) of CEM-C2; type: cell-based, human
From the text: (§1) CCRF-CEM, CEM/C1, CEM/C2, CEM-C7, Jurkat, Loucy, Molt-4, HSB-2, SUP-T1, Hut 78, HH, Hut 102, MO, and H9 T-leukemia and T-lymphoma cell lines were purchased from the American Type Culture Collection (Manassas, Va., USA). All of the cell lines were initially expanded and cryopreserved within one month of receipt. Cells were typically used for 6 months at which time a fresh vial of cryopreserved cells was used. Total T cells from healthy donors were isolated via negative selection followed by positive selection using a CD3+ selection kit (Invitrogen, Carlsbad, Calif.). T cells were isolated from patients with T-ALL bone marrow or peripheral blood samples containing more than 70% leukemia cells using a CD2+ isolation kit (STEMCELL Technologies, Vancouver, Canada). All tissues were collected under institutional IRB-approved protocols and all participants gave written informed assent/consent. For in vitro experiments, T-ALL cells were cultured in AIM-V medium supplemented with 20% human AB serum in the presence of recombinant human stem cell factor (50 ng/mL; Amgen, Thousand Oaks, Calif.), insulin (20 nM; Sigma-Aldrich, St Louis, Mo., USA) and IL-7 (50 ng/mL; R&D Systems, Minneapolis, Minn., USA). In other experiments, protein lysate was collected using the Full Moon Biosystems (Sunnyvale, Calif., USA) buffer prior to protein examination by western blot or protein array.
(§2) Cells were cultured in a 96-well plate (Corning Costar, Corning, N.Y., USA) with various concentrations of TLR ligands 1-9, starting at 10 μg/ml, in a final volume of 200 ul. TLR ligands were diluted 2-fold. Cell lines (25-40×10^3/well) were cultured for 54 hours, whereas fresh patient-derived T-ALL cells (200×10^3/well) were cultured for 30 hours prior to adding [^3H]-thymidine for 18 hours. After this time point, cells were harvested with a Packard Filter-Mate-96 cell harvester (Perkin Elmer, Waltham, Mass., USA) and counted on Packard Top Count-NXT (Perkin Elmer, Waltham, Mass., USA). Results were expressed as average counts per minute (cpm). In some experiments CCRF-CEM cells were pre-treated with TLR1-TLR2 ligand (Pam3CysK4; 2.5 ug/ml) for 48 hrs, washed, and then cultured in the presence of varying concentrations of FBS. Forty-eight hours later, proliferation (±SD) was determined by ^3H-thymidine incorporation. Alternatively, apoptosis was measured by flow cytometry after staining cells with Annexin-V (BD Pharmingen, San Diego, Calif., USA) and propidium iodide (Sigma). Cell number was counted under microscopy by staining cells with trypan blue. […]

CEM-C7 = test: Proliferation (3H-thymidine) of CEM-C7; type: cell-based, human
From the text: as §1
Cells were cultured in a 96-well plate (Corning Costar, Corning, N.Y., USA) with various concentrations of TLR ligands 1-9, starting at 10 μg/ml, in a final volume of 200 ul. TLR ligands were diluted 2-fold. Cell lines (25-40×10^3/well) were cultured for 54 hours, whereas fresh patient-derived T-ALL cells (200×10^3/well) were cultured for 30 hours prior to adding [^3H]-thymidine for 18 hours. After this time point, cells were harvested with a Packard Filter-Mate-96 cell harvester (Perkin Elmer, Waltham, Mass., USA) and counted on Packard Top Count-NXT (Perkin Elmer, Waltham, Mass., USA). Results were expressed as average counts per minute (cpm). In some experiments CCRF-CEM cells were pre-treated with TLR1-TLR2 ligand (Pam3CysK4; 2.5 ug/ml) for 48 hrs, washed, and then cultured in the presence of varying concentrations of FBS. Forty-eight hours later, proliferation (±SD) was determined by ^3H-thymidine incorporation. Alternatively, apoptosis was measured by flow cytometry after staining cells with Annexin-V (BD Pharmingen, San Diego, Calif., USA) and propidium iodide (Sigma). Cell number was counted under microscopy by staining cells with trypan blue.
The following TLR ligands were purchased from Invivogen (San Diego, Calif., USA): tripalmitoyl-S-(bis(palmitoyloxy)propyl)-Cys-Ser-(Lys)3-Lys (TLR1-2); Poly I:C (TLR3); ultrapure S. Minnesota Lipopolysaccharide (TLR4); S. typhimurium flagellin (TLR5); FSL-1 (TLR2/6); Imiquimod (TLR7); ssRNA40/Lyovec (TLR8); CpG-ODN 2006 (TLR9).

Jurkat = test: Proliferation (3H-thymidine) of Jurkat; type: cell-based, human; conditions: 3H-thymidine uptake, 72 h
From the text: as §1, §2

Hut-78 = test: Proliferation (3H-thymidine) of Hut-78; type: cell-based, human; conditions: 3H-thymidine uptake, 72 h
From the text: as §1, with “In other experiments, protein lysate was collected using the Full Moon Biosystems (Sunnyvale, Calif., USA) buffer prior to protein examination by western blot or protein array.” left out
as §2, with “TLR ligands were diluted 2-fold. Cell lines (25-40×10^3/well) were cultured for 54 hours, whereas fresh patient-derived T-ALL cells (200×10^3/well) were cultured for 30 hours prior to adding [^3H]-thymidine for 18 hours.” left out, “In some experiments CCRF-CEM cells were pre-treated with TLR1-TLR2 ligand (Pam3CysK4; 2.5 ug/ml) for 48 hrs, washed, and then cultured in the presence of varying concentrations of FBS.” left out

Hut 102 = test: Proliferation (3H-thymidine) of Hut 102; type: cell-based, human; conditions: 3H-thymidine uptake, 72 h
From the text: as §1, with “In other experiments, protein lysate was collected using the Full Moon Biosystems (Sunnyvale, Calif., USA) buffer prior to protein examination by western blot or protein array.” left out
as §2, with “TLR ligands were diluted 2-fold. Cell lines (25-40×10^3/well) were cultured for 54 hours, whereas fresh patient-derived T-ALL cells (200×10^3/well) were cultured for 30 hours prior to adding [^3H]-thymidine for 18 hours.” left out, “In some experiments CCRF-CEM cells were pre-treated with TLR1-TLR2 ligand (Pam3CysK4; 2.5 ug/ml) for 48 hrs, washed, and then cultured in the presence of varying concentrations of FBS.” left out

Row | Compound | decrease of phosphorylated-p65 levels (CCRF-CEM cells [1]) | p-ERK1/2 levels (CCRF-CEM cells [1]) | reduction of p-AKT expression levels (CCRF-CEM cells [1]) | reduction of p-mTOR expression levels (CCRF-CEM cells [1]) | p-mTOR levels (patient T-ALL cells; patient sample #810 (barely detectable p-IRAK-4), treated in vivo) | reduction of p-p65 levels (patient T-ALL cells; patient samples #825 and #828 from treated NSG mice) | expression of CDKN1C, COL1A1, EGR1, ID1, PLAU and SERPINES (CCRF-CEM cells [2]) | median survival (A375 melanoma cells) | Proliferative effects of TLR ligands (CEM-C2; 3H-thymidine uptake, 72 h) | TLR ligand concentration in parentheses below the symbol (CEM-C2; no unit in table (μg/ml)) | Proliferative effects of TLR ligands (CEM-C7; 3H-thymidine uptake, 72 h) | TLR ligand concentration in parentheses below the symbol (CEM-C7; no unit in table (μg/ml)) | Proliferative effects of TLR ligands (Jurkat) | Proliferative effects of TLR ligands (Hut-78) | Proliferative effects of TLR ligands (Hut 102)
1 | O=C(Nc1nc2ccccc2n1CCN1CCOCC1)c1cccc([N+](=O)[O-])c1 [IRAK-1,-4 inhibitor] | four-fold | did not alter | five-fold | approximately six-fold | did not show changes | two-fold | significantly up- or down-regulated | 19 days |  |  |  |  |  |  | 
2 | tripalmitoyl-S-(bis(palmitoyloxy)propyl)-Cys-Ser-(Lys)3-Lys [Pam3Cysk4] |  |  |  |  |  |  |  |  | + (enhanced proliferation by 25% or greater) | (2.5) | + (enhanced proliferation by 25% or greater) | (2.5) | ∘ | ∘ | ∘
